{
  "source": "PubChem BioAssay AID1259407",
  "about": "(Chemical Carcinogenesis Research Information System (CCRIS), 2018)",
  "tested_on": "CCRIS mutagenicity, Ames/micronucleus/aberration tests",
  "assay": "CCRIS mutagenicity studies",
  "settings": "Test System: AMES SALMONELLA TYPHIMURIUM",
  "key": {"[1]": {"settings": "Strain/Indicator: TA97, Metabolic Activation: NONE, Method: STANDARD PLATE"}, "[2]": {"settings": "Strain/Indicator: TA98, Metabolic Activation: NONE, Method: STANDARD PLATE"}, "[3]": {"settings": "Strain/Indicator: TA100, Metabolic Activation: NONE, Method: STANDARD PLATE"}},
  "note": "Calls of active or inactive are those of the source. No rule for the calls is given here.",
  "data": [
    {"molecule": "CC(=O)c1cc2c(cc1C)C(C)(C)C(C)C2(C)C", "note": "(stereo not given)", "values": [
      {"measurement": "mutagenic call", "setting": "[1]", "value": "inactive; negative"},
      {"measurement": "mutagenic call", "setting": "Strain/Indicator: TA97, Metabolic Activation: RAT LIVER S-9, AROCLOR 1254, Method: STANDARD PLATE", "value": "inactive; negative"},
      {"measurement": "mutagenic call", "setting": "[2]", "value": "inactive; negative"},
      {"measurement": "mutagenic call", "setting": "Strain/Indicator: TA98, Metabolic Activation: RAT LIVER S-9, AROCLOR 1254, Method: STANDARD PLATE", "value": "inactive; negative"},
      {"measurement": "mutagenic call", "setting": "[3]", "value": "inactive; negative"},
      {"measurement": "mutagenic call", "setting": "Strain/Indicator: TA100, Metabolic Activation: RAT LIVER S-9, AROCLOR 1254, Method: STANDARD PLATE", "value": "inactive; negative"},
      {"measurement": "mutagenic call", "setting": "Strain/Indicator: TA102, Metabolic Activation: NONE, Method: STANDARD PLATE", "value": "inactive; negative"},
      {"measurement": "mutagenic call", "setting": "Strain/Indicator: TA102, Metabolic Activation: RAT LIVER S-9, AROCLOR 1254, Method: STANDARD PLATE", "value": "inactive; negative"}
    ]},
    {"molecule": "Brc1c2ccccc2cc2c1ccc1ccccc12", "values": [
      {"measurement": "mutagenic call", "setting": "Strain/Indicator: TA100, Metabolic Activation: RAT, LIVER, S-9, PCB, Method: STANDARD PLATE", "value": "active; positive"}
    ]},
    {"molecule": "O=C1C=C(O)c2ccccc2C1=O", "values": [
      {"measurement": "mutagenic call", "setting": "Strain/Indicator: TA98, Metabolic Activation: HAMSTER, LIVER, S-9, AROCLOR 1254 (10%), Method: PREINCUBATION", "value": "inactive; negative"},
      {"measurement": "mutagenic call", "setting": "Strain/Indicator: TA98, Metabolic Activation: NONE, Method: PREINCUBATION", "value": "inactive; negative"},
      {"measurement": "mutagenic call", "setting": "Strain/Indicator: TA98, Metabolic Activation: RAT, LIVER, S-9, AROCLOR 1254 (10%), Method: PREINCUBATION", "value": "inactive; negative"},
      {"measurement": "mutagenic call", "setting": "Strain/Indicator: TA98, Metabolic Activation: RAT, LIVER, S-9, PHENOBARBITAL AND 5,6-BENZOFLAVONE, Method: PREINCUBATION", "value": "inactive; negative"},
      {"measurement": "mutagenic call", "setting": "Strain/Indicator: TA100, Metabolic Activation: HAMSTER, LIVER, S-9, AROCLOR 1254 (10%), Method: PREINCUBATION", "value": "inactive; negative"},
      {"measurement": "mutagenic call", "setting": "Strain/Indicator: TA100, Metabolic Activation: NONE, Method: PREINCUBATION", "value": "inactive; negative"},
      {"measurement": "mutagenic call", "setting": "Strain/Indicator: TA100, Metabolic Activation: RAT, LIVER, S-9, AROCLOR 1254 (10%), Method: PREINCUBATION", "value": "inactive; negative"},
      {"measurement": "mutagenic call", "setting": "Strain/Indicator: TA100, Metabolic Activation: RAT, LIVER, S-9, PHENOBARBITAL AND 5,6-BENZOFLAVONE, Method: PREINCUBATION", "value": "inactive; negative"},
      {"measurement": "mutagenic call", "setting": "Strain/Indicator: TA102, Metabolic Activation: NONE, Method: PREINCUBATION", "value": "inactive; negative"},
      {"measurement": "mutagenic call", "setting": "Strain/Indicator: TA102, Metabolic Activation: RAT, LIVER, S-9, PHENOBARBITAL AND 5,6-BENZOFLAVONE, Method: PREINCUBATION", "value": "inactive; negative"},
      {"measurement": "mutagenic call", "setting": "Strain/Indicator: TA104, Metabolic Activation: NONE, Method: PREINCUBATION", "value": "inactive; negative"},
      {"measurement": "mutagenic call", "setting": "Strain/Indicator: TA104, Metabolic Activation: RAT, LIVER, S-9, PHENOBARBITAL AND 5,6-BENZOFLAVONE, Method: PREINCUBATION", "value": "inactive; negative"},
      {"measurement": "mutagenic call", "setting": "Strain/Indicator: TA1535, Metabolic Activation: HAMSTER, LIVER, S-9, AROCLOR 1254 (10%), Method: PREINCUBATION", "value": "inactive; negative"},
      {"measurement": "mutagenic call", "setting": "Strain/Indicator: TA1535, Metabolic Activation: NONE, Method: PREINCUBATION", "value": "inactive; negative"},
      {"measurement": "mutagenic call", "setting": "Strain/Indicator: TA1535, Metabolic Activation: RAT, LIVER, S-9, AROCLOR 1254 (10%), Method: PREINCUBATION", "value": "inactive; negative"},
      {"measurement": "mutagenic call", "setting": "Strain/Indicator: TA1535, Metabolic Activation: RAT, LIVER, S-9, PHENOBARBITAL AND 5,6-BENZOFLAVONE, Method: PREINCUBATION", "value": "inactive; negative"},
      {"measurement": "mutagenic call", "setting": "Strain/Indicator: TA1537, Metabolic Activation: HAMSTER, LIVER, S-9, AROCLOR 1254 (10%), Method: PREINCUBATION", "value": "inactive; negative"},
      {"measurement": "mutagenic call", "setting": "Strain/Indicator: TA1537, Metabolic Activation: NONE, Method: PREINCUBATION", "value": "inactive; negative"},
      {"measurement": "mutagenic call", "setting": "Strain/Indicator: TA1537, Metabolic Activation: RAT, LIVER, S-9, AROCLOR 1254 (10%), Method: PREINCUBATION", "value": "active; positive"},
      {"measurement": "mutagenic call", "setting": "Strain/Indicator: TA1537, Metabolic Activation: RAT, LIVER, S-9, PHENOBARBITAL AND 5,6-BENZOFLAVONE, Method: PREINCUBATION", "value": "inactive; negative"},
      {"measurement": "mutagenic call", "setting": "Strain/Indicator: TA1538, Metabolic Activation: NONE, Method: PREINCUBATION", "value": "inactive; negative"},
      {"measurement": "mutagenic call", "setting": "Strain/Indicator: TA1538, Metabolic Activation: RAT, LIVER, S-9, PHENOBARBITAL AND 5,6-BENZOFLAVONE, Method: PREINCUBATION", "value": "inactive; negative"},
      {"measurement": "mutagenic call", "setting": "Strain/Indicator: TA2637, Metabolic Activation: NONE, Method: PREINCUBATION", "value": "inactive; negative"},
      {"measurement": "mutagenic call", "setting": "Strain/Indicator: TA2637, Metabolic Activation: RAT, LIVER, S-9, PHENOBARBITAL AND 5,6-BENZOFLAVONE, Method: PREINCUBATION", "value": "inactive; negative"}
    ]},
    {"molecule": "CC(=O)Nc1ccc(OC(=O)c2ccccc2OC(C)=O)cc1", "values": [
      {"measurement": "mutagenic call", "setting": "[1]", "value": "inactive; negative"},
      {"measurement": "mutagenic call", "setting": "Strain/Indicator: TA97, Metabolic Activation: RAT, LIVER, S-9, AROCLOR 1254, Method: STANDARD PLATE", "value": "inactive; negative"},
      {"measurement": "mutagenic call", "setting": "[2]", "value": "inactive; negative"},
      {"measurement": "mutagenic call", "setting": "Strain/Indicator: TA98, Metabolic Activation: RAT, LIVER, S-9, AROCLOR 1254, Method: STANDARD PLATE", "value": "inactive; negative"},
      {"measurement": "mutagenic call", "setting": "[3]", "value": "inactive; negative"},
      {"measurement": "mutagenic call", "setting": "Strain/Indicator: TA100, Metabolic Activation: RAT, LIVER, S-9, AROCLOR 1254, Method: STANDARD PLATE", "value": "inactive; negative"},
      {"measurement": "mutagenic call", "setting": "Strain/Indicator: TA1535, Metabolic Activation: NONE, Method: STANDARD PLATE", "value": "inactive; negative"},
      {"measurement": "mutagenic call", "setting": "Strain/Indicator: TA1535, Metabolic Activation: RAT, LIVER, S-9, AROCLOR 1254, Method: STANDARD PLATE", "value": "inactive; negative"},
      {"measurement": "mutagenic call", "setting": "Strain/Indicator: TA1537, Metabolic Activation: NONE, Method: STANDARD PLATE", "value": "inactive; negative"},
      {"measurement": "mutagenic call", "setting": "Strain/Indicator: TA1537, Metabolic Activation: RAT, LIVER, S-9, AROCLOR 1254, Method: STANDARD PLATE", "value": "inactive; negative"},
      {"measurement": "mutagenic call", "setting": "Strain/Indicator: TA1538, Metabolic Activation: NONE, Method: STANDARD PLATE", "value": "inactive; negative"},
      {"measurement": "mutagenic call", "setting": "Strain/Indicator: TA1538, Metabolic Activation: RAT, LIVER, S-9, AROCLOR 1254, Method: STANDARD PLATE", "value": "inactive; negative"}
    ]}
  ]
}
